# Data published in patent US20230365592A1 (Agios Pharmaceuticals, Inc., priority 2022, published 2023).
# Biological target: T1, human PAH with the R408W mutation (Homo sapiens, UniProt P00439, R408W)
# T1 construct: expressed in transfected cells
# T1 sequence (P00439 1-452 R408W): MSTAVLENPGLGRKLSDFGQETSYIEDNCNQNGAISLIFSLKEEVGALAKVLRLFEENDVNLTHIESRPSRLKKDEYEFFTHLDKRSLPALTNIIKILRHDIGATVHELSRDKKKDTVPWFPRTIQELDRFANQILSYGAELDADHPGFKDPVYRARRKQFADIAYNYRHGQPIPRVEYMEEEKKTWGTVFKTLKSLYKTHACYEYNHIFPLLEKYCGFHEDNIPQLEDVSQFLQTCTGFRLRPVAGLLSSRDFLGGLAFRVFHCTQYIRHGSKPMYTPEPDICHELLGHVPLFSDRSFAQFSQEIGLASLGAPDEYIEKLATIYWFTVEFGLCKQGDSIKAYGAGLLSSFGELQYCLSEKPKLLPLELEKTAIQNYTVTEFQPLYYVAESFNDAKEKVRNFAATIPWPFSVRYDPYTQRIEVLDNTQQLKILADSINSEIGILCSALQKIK
# Assay: Cell Based Phenylalanine Flux Assay;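 further: after compound treatment, cells received sepiapterin plus isotope-labelled Phenylalanine for 4 hours, then labelled Tyrosine in the medium was quantified, 10-point 2-fold dilution series run in duplicate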
# Details: A375 cells expressing human R408W PAH; 24 hrs compound incubation; 13C-Tyrosine by LC-MS; average where tested multiple times; read-out: AC50
row,Compound,AC50
1,"Cc1nnc(C(=O)N2CCc3[nH]cnc3[C@H]2c2cc3c(Cl)cccn3n2)o1 [Example 1106, (S)-(4-(4-chloropyrazolo[1,5-a]pyridin-2-yl)-6,7-dihydro-1H-imidazo[4,5-c]pyridin-5(4H)-yl)(5-methyl-1,3,4-oxadiazol-2-yl)methanone]",< 500 nM
2,"Cc1nnc(C(=O)N2CCc3[nH]cnc3[C@@H]2c2cc3c(Cl)cccn3n2)o1 [Example 1107, (R)-(4-(4-chloropyrazolo[1,5-a]pyridin-2-yl)-6,7-dihydro-1H-imidazo[4,5-c]pyridin-5(4H)-yl)(5-methyl-1,3,4-oxadiazol-2-yl)methanone]",1000 to 5000 nM
3,"CC(C)(F)c1nnc(C(=O)N2CCc3[nH]cnc3[C@@H]2c2cc3c(Cl)cccn3n2)o1 [Example 1108, (R)-(4-(4-chloropyrazolo[1,5-a]pyridin-2-yl)-6,7-dihydro-1H-imidazo[4,5-c]pyridin-5(4H)-yl)(5-(2-fluoropropan-2-yl)-1,3,4-oxadiazol-2-yl)methanone]",> 5000 nM
4,"Cc1ccc2cc([C@H]3c4nc[nH]c4CCN3C(=O)c3nnc(C(C)(C)C)o3)nn2c1 [Example 1111, (R)-(5-(tert-butyl)-1,3,4-oxadiazol-2-yl)(4-(6-methylpyrazolo[1,5-a]pyridin-2-yl)-6,7-dihydro-1H-imidazo[4,5-c]pyridin-5(4H)-yl)methanone]",> 5000 nM
5,"Cc1ccc2cc([C@@H]3c4nc[nH]c4CCN3C(=O)c3ccnn3C(F)F)nn2c1 [Example 1112, (S)-(1-(difluoromethyl)-1H-pyrazol-5-yl)(4-(6-methylpyrazolo[1,5-a]pyridin-2-yl)-6,7-dihydro-1H-imidazo[4,5-c]pyridin-5(4H)-yl)methanone]",< 500 nM
6,"Cc1ccc2cc([C@H]3c4nc[nH]c4CCN3C(=O)c3ccnn3C(F)F)nn2c1 [Example 1113, (R)-(1-(difluoromethyl)-1H-pyrazol-5-yl)(4-(6-methylpyrazolo[1,5-a)pyridin-2-yl)-6,7-dihydro-1H-imidazo[4,5-c]pyridin-5(4H)-yl)methanone]",1000 to 5000 nM
7,"CC(C)(F)c1nnc(C(=O)N2CCc3[nH]cnc3[C@H]2c2cc3ccc(F)cn3n2)o1 [Example 1114, (S)-(5-(2-fluoropropan-2-yl)-1,3,4-oxadiazol-2-yl)(4-(6-fluoropyrazolo[1,5-a]pyridin-2-yl)-6,7-dihydro-1H-imidazo[4,5-c]pyridin-5(4H)-yl)methanone]",500 to 1000 nM
8,"O=C(c1nnc(-c2ccn(C(F)F)n2)o1)N1CCc2[nH]cnc2[C@@H]1c1cc2c(Cl)cccn2n1 [Example 1119, (R)-(4-(4-chloropyrazolo[1,5-a]pyridin-2-yl)-6,7-dihydro-1H-imidazo[4,5-c]pyridin-5(4H)-yl)(5-(1-(difluoromethyl)-1H-pyrazol-3-yl)-1,3,4-oxadiazol-2-yl)methanone]",> 5000 nM
9,"O=C(c1nnc(-c2cnn(C(F)F)c2)o1)N1CCc2[nH]cnc2[C@H]1c1cc2cccc(Cl)n2n1 [Example 1120, (S)-(4-(7-chloropyrazolo[1,5-a]pyridin-2-yl)-6,7-dihydro-1H-imidazo[4,5-c]pyridin-5(4H)-yl)(5-(1-(difluoromethyl)-1H-pyrazol-4-yl)-1,3,4-oxadiazol-2-yl)methanone]",< 500 nM
10,"O=C(c1nnc(-c2cnn(C(F)F)c2)o1)N1CCc2[nH]cnc2[C@@H]1c1cc2cccc(Cl)n2n1 [Example 1121, (R)-(4-(7-chloropyrazolo[1,5-a]pyridin-2-yl)-6,7-dihydro-1H-imidazo[4,5-c]pyridin-5(4H)-yl)(5-(1-(difluoromethyl)-1H-pyrazol-4-yl)-1,3,4-oxadiazol-2-yl)methanone]",1000 to 5000 nM
11,"CC(C)(C)c1nnc(C(=O)N2CCc3[nH]cnc3[C@@H]2c2cc3cccc(Cl)n3n2)o1 [Example 1122, (R)-(5-(tert-butyl)-1,3,4-oxadiazol-2-yl)(4-(7-chloropyrazolo[1,5-a]pyridin-2-yl)-6,7-dihydro-1H-imidazo[4,5-c]pyridin-5(4H)-yl)methanone]",1000 to 5000 nM
12,"CC(C)(C)c1nnc(C(=O)N2CCc3[nH]cnc3[C@H]2c2cc3cccc(Cl)n3n2)o1 [Example 1123, (S)-(5-(tert-butyl)-1,3,4-oxadiazol-2-yl)(4-(7-chloropyrazolo[1,5-a]pyridin-2-yl)-6,7-dihydro-1H-imidazo[4,5-c]pyridin-5(4H)-yl)methanone]",< 500 nM
13,"CC(C)(C)c1nnc(C(=O)N2CCc3[nH]cnc3[C@H]2c2cc3ccc(F)cn3n2)o1 [Example 1124, (S)-(5-(tert-butyl)-1,3,4-oxadiazol-2-yl)(4-(6-fluoropyrazolo[1,5-a]pyridin-2-yl)-6,7-dihydro-1H-imidazo[4,5-c]pyridin-5(4H)-yl)methanone]",500 to 1000 nM
14,"Cn1nc(C(F)F)nc1C(=O)N1CCc2[nH]cnc2[C@H]1c1cc2ccc(C(F)(F)F)cn2n1 [Example 1126, (S)-(3-(difluoromethyl)-1-methyl-1H-1,2,4-triazol-5-yl)(4-(6-(trifluoromethyl)pyrazolo[1,5-a]pyridin-2-yl)-6,7-dihydro-1H-imidazo[4,5-c]pyridin-5(4H)-yl)methanone]",< 500 nM
15,"Cn1ccc(-c2nnc(C(=O)N3CCc4[nH]cnc4[C@H]3c3cc4ccc(C(F)(F)F)cn4n3)o2)n1 [Example 1128, (S)-(5-(1-methyl-1H-pyrazol-3-yl)-1,3,4-oxadiazol-2-yl)(4-(6-(trifluoromethyl)pyrazolo[1,5-a]pyridin-2-yl)-6,7-dihydro-1H-imidazo[4,5-c]pyridin-5(4H)-yl)methanone]",500 to 1000 nM
16,"Cn1ccc(-c2nnc(C(=O)N3CCc4[nH]cnc4[C@@H]3c3cc4ccc(C(F)(F)F)cn4n3)o2)n1 [Example 1129, (R)-(5-(1-methyl-1H-pyrazol-3-yl)-1,3,4-oxadiazol-2-yl)(4-(6-(trifluoromethyl)pyrazolo[1,5-a]pyridin-2-yl)-6,7-dihydro-1H-imidazo[4,5-c]pyridin-5(4H)-yl)methanone]",1000 to 5000 nM
17,"O=C(c1nnc(C2CC2)o1)N1CCc2[nH]cnc2[C@H]1c1cc2cc(F)ccn2n1 [Example 1130, (S)-(5-cyclopropyl-1,3,4-oxadiazol-2-yl)(4-(5-fluoropyrazolo[1,5-a]pyridin-2-yl)-6,7-dihydro-1H-imidazo[4,5-c]pyridin-5(4H)-yl)methanone]",500 to 1000 nM
18,"O=C(c1nnc(C2CC2)o1)N1CCc2[nH]cnc2[C@@H]1c1cc2cc(F)ccn2n1 [Example 1131, (R)-(5-cyclopropyl-1,3,4-oxadiazol-2-yl)(4-(5-fluoropyrazolo[1,5-a]pyridin-2-yl)-6,7-dihydro-1H-imidazo[4,5-c]pyridin-5(4H)-yl)methanone]",1000 to 5000 nM
19,"O=C(c1ccnn1C(F)F)N1CCc2[nH]cnc2[C@H]1c1cc2cc(C(F)(F)F)ccn2n1 [Example 1132, (S)-(1-(difluoromethyl)-1H-pyrazol-5-yl)(4-(5-(trifluoromethyl)pyrazolo[1,5-a]pyridin-2-yl)-6,7-dihydro-1H-imidazo[4,5-c]pyridin-5(4H)-yl)methanone]",< 500 nM
20,"O=C(c1nnc(-c2cnn(C(F)F)c2)o1)N1CCc2[nH]cnc2[C@H]1c1cc2c(Cl)cccn2n1 [Example 1134, (S)-(4-(4-chloropyrazolo[1,5-a]pyridin-2-yl)-6,7-dihydro-1H-imidazo[4,5-c]pyridin-5(4H)-yl)(5-(1-(difluoromethyl)-1H-pyrazol-4-yl)-1,3,4-oxadiazol-2-yl)methanone]",< 500 nM
21,"O=C(c1nnc(-c2cnn(C(F)F)c2)o1)N1CCc2[nH]cnc2[C@@H]1c1cc2c(Cl)cccn2n1 [Example 1135, (R)-(4-(4-chloropyrazolo[1,5-a]pyridin-2-yl)-6,7-dihydro-1H-imidazo[4,5-c]pyridin-5(4H)-yl)(5-(1-(difluoromethyl)-1H-pyrazol-4-yl)-1,3,4-oxadiazol-2-yl)methanone]",1000 to 5000 nM
22,"O=C(c1ccnn1C(F)F)N1CCc2[nH]cnc2[C@H]1c1cc2ccc(C(F)(F)F)cn2n1 [Example 1138, (S)-(1-(difluoromethyl)-1H-pyrazol-5-yl)(4-(6-(trifluoromethyl)pyrazolo[1,5-a]pyridin-2-yl)-6,7-dihydro-1H-imidazo[4,5-c]pyridin-5(4H)-yl)methanone]",< 500 nM
23,"O=C(c1nnc(C2CC2)o1)N1CCc2[nH]cnc2[C@H]1c1cc2cccc(C(F)(F)F)n2n1 [Example 1140, (S)-(5-cyclopropyl-1,3,4-oxadiazol-2-yl)(4-(7-(trifluoromethyl)pyrazolo[1,5-a]pyridin-2-yl)-6,7-dihydro-1H-imidazo[4,5-c]pyridin-5(4H)-yl)methanone]",500 to 1000 nM
24,"Cn1nc(Cl)nc1C(=O)N1CCc2[nH]cnc2[C@H]1c1cc2cccc(Cl)n2n1 [Example 1142, (S)-(3-chloro-1-methyl-1H-1,2,4-triazol-5-yl)(4-(7-chloropyrazolo[1,5-a]pyridin-2-yl)-6,7-dihydro-1H-imidazo[4,5-c]pyridin-5(4H)-yl)methanone]",< 500 nM
25,"Cn1ncnc1C(=O)N1CCc2[nH]cnc2[C@H]1c1cc2cccc(C(F)(F)F)n2n1 [Example 1144, (S)-(1-methyl-1H-1,2,4-triazol-5-yl)(4-(7-(trifluoromethyl)pyrazolo[1,5-a]pyridin-2-yl)-6,7-dihydro-1H-imidazo[4,5-c]pyridin-5(4H)-yl)methanone]",500 to 1000 nM
26,"Cc1cccc2cc([C@@H]3c4nc[nH]c4CCN3C(=O)c3ocnc3C(F)(F)F)nn12 [Example 1146, (S)-(4-(7-methylpyrazolo[1,5-a]pyridin-2-yl)-6,7-dihydro-1H-imidazo[4,5-c]pyridin-5(4H)-yl)(4-(trifluoromethyl)oxazol-5-yl)methanone]",< 500 nM
